Results on one compound are retold here after EP2873675A1, “Peptide-based peroxidase inhibitors and methods of using same” (The Medical College of Wisconsin, Inc., priority 2013, dated 2015).

Entries after “also recorded” stand apart in the source; their conditions may differ. Residues, ends and D or L forms follow the SMILES beside them.

Data set [1] has as its system MPO. Nature of the data set: MPO-mediated LDL Trp oxidation (Trp intrinsic fluorescence). The format is biochemical. The settings on record: MPO/H2O2/NO2- system, 30 min, room temperature. As for the experimental part: MPO-mediated LDL Trp Oxidation: Reaction mixtures containing LDL (0.15 mg/mL), NaNO2 (100 µM), H2O2 (100 µM), MPO (20 nM) and increasing concentrations of KYC in a phosphate buffer (100 mM, pH 7.4) containing DTPA (100 µM) were incubated at room temperature for 30 min. Reactions were stopped by addition of catalase (2,000 units/mL) and the oxidation of Trp in LDL was determined by measuring changes in the intrinsic fluorescence of Trp (Ex 294nm/Em 345 nm) using a LC-50 fluorometer (Perkin Elmer, Waltham MA).

Data set [2] is described as follows: Solubility in water / physiological buffers. The format is physicochemical. The conditions noted are these: can be added directly to physiological buffers.
Data set [3] concerns MPO. As to the kind of experiment: MPO-mediated LDL oxidation (conjugated diene formation, absorbance at 234 nm). The data set is classed as biochemical. The conditions noted are these: for conjugated diene formation in the LDL solution: for more than 2 hours. On the procedure: MPO-mediated oxidation of LDL. Reaction mixtures contained LDL (0.15 mg/ml), NaNO2 (100 µM), H2O2 (300 µM), MPO (20 nM) and various concentrations of KYC in a potassium phosphate buffer (100 mM, pH 7.4) containing DTPA (100 µM). LDL oxidation was monitored at 234 nm at room temperature on a HP UV/VIS spectrometer. Absorbance traces represent the average of duplicate experiments.
MPO-mediated LDL Oxidation. Reaction mixtures contained LDL (0.15 mg/mL), NaNO2 (100 µM), H2O2 (100 µM), MPO (20 nM) and increasing concentrations of KYC in a phosphate buffer (100 mM, pH 7.4) containing DTPA (100 µM). Rates of LDL oxidation were monitored at room temperature at 234 nm, the wavelength maximum for conjugated dienes.
MPO-mediated LDL Conjugated Diene Formation: Reaction mixtures contained LDL (0.15 mg/mL), NaNO2 (100 µM), H2O2 (100 µM), MPO (20 nM) and increasing concentrations of KYC or equimolar concentrations of various compounds in a phosphate buffer (100 mM, pH 7.4) containing DTPA (100 µM). Rates of LDL conjugated diene formation were determined by following changes in absorbance at 234 nm, the wavelength maximum for conjugated dienes, on a UV-Vis spectrophotometer (Agilent Model 8453) at room temperature.

The test system of data set [4] is SCD mice. As to the kind of experiment: WBC counts in SCD mice (cytometry). The conditions noted are these: SCD mice treated for three weeks. The format is in vivo. On the procedure: MPO improves vascular function in SCD mice. To determine whether inhibiting MPO improves vascular function and/or reduces inflammation in vivo, SCD mice were treated with KYC for three weeks. […] Such physiological and structural changes are consistent with immunofluorescent studies showing that chlorotyrosine and MPO levels are reduced in the aortas of KYC-treated SCD mice compared with non-treated SCD mice (Fig. 13). High WBC counts are indicative of on-going inflammation in SCD and predictive of future vaso-occlusive events. Accordingly, WBC levels were quantified in the SCD mice using standard cytometry assays.

Data set [5] relates to SCD mice. Nature of the data set: Vessel wall thickness of facialis arteries from SCD mice. The format is in vivo. The settings on record: 0.3 mg/kg/d, 3 weeks; after papaverine; P=0.10. As for the experimental part: Vessel Wall Thickness. After completing the vasodilatation studies, the pressurized vessels were maximally dilated by addition of papaverine (10^-4 mol/L, 4 min), and outside and inside diameters recorded. An index of wall thickness was calculated using the following formula; ([outside diameter/inside diameter]/2)/outside diameter, as previously described.

Another data set has as its system NADPH oxidase (NOX). As to the kind of experiment: PMA-stimulated HL-60 cell superoxide formation (SOD-inhibitable cytochrome C reduction). The data set is classed as cell-based, human. The conditions noted are these: cytochrome C assay. As for the experimental part:
PMA-induced Superoxide Anion Formation. HL-60 cells were cultured in RPMI 1640 medium containing 10 % FCS (passage 20-50). HL-60 cells were harvested by centrifugation (1000 rpm, 10 min), washed 2X with phosphate buffer (10 mM, pH 7.4) with NaCl (138 mM), KCl (2.67 mM), CaCl2 (0.901 mM), MgCl2 (0.493 mM) and glucose (1mg/ml) to remove culture medium. The HL-60 cells (6 x10^6/0.5ml) were re-suspended in DPBS. After stimulation with PMA (10 µM), the HL-60 cells were incubated with cytochrome C (40 µM) with or without superoxide dismutase at 37°C for 30 min. The reaction was stopped by centrifugation. Cytochrome C reduction was measured at 550 nm on a UV-Vis spectrophotometer (Agilent, Model 8453).
PMA-stimulated HL-60 cell O2^•- Formation: HL-60 cells were harvested by centrifugation (1000 rpm, 10 min), washed twice with DPBS with glucose to remove culture medium. The HL-60 cells (1.2 x10^7/ml) were re-suspended in DPBS with glucose. After stimulation with PMA (10 µM), the HL-60 cells were incubated with cytochrome C (40 µM) with or without superoxide dismutase (500 units/mL) at 37 °C for 10 min and then the HL-60 cells were removed by centrifugation. Cytochrome C reduction in supernatants was measured at 550 nm using a UV-Vis spectrophotometer (Agilent, Model 8453).

Data set [6] has as its system MPO. As to the kind of experiment: MPO-mediated LDL oxidation (conjugated diene formation, absorbance at 234 nm). The data set is classed as biochemical. The conditions noted are these: 25 µM; in the absence of nitrite.
The test system of a further data set is lung cancer mice. Nature of the data set: BHT-treated lung cancer mice (BALF activities, tumor number). The settings on record: BHT 300 mg/kg single dose; 0.3 mg/kg/d; after 3 days. The data set is classed as in vivo. As for the experimental part: Inhibiting MPO decreases PMN degranulation in lung cancer mice. PMNs are considered to play a causal role in initiating tumor formation. Effects of KYC on PMN recruitment and tumor formation in lung cancer mice were determined. Briefly, mice were treated with BHT (single dose: 300 mg/kg) and KYC (0.3 mg/kg/d).

Regarding `CC(=O)N[C@@H](CCCCN)C(=O)N[C@@H](Cc1ccc(O)cc1)C(=O)N[C@@H](CS)C(N)=O` [KYC, N-acetyl Lysyltyrosylcysteine amide] (Ac-Lys-Tyr-Cys-NH2), in the data set with MPO [1], the “MPO-dependent oxidation of Trp residues in LDL” value is “protected the Trp residues in LDL against MPO-dependent oxidation”. Besides, the solubility in water entry in data set [2] is listed as “highly water soluble”. Further, the “lag time of conjugated diene formation” value in the data set on MPO [3] (4 µM, MPO/H2O2/nitrite, H2O2 300 µM, lag time without peptide 25 min) came out at 90 min. Further, the “reduction of the rate of LDL oxidation” value in the data set with MPO [3] (4 µM, at the end of the 2 hour incubation, on the basis of absorbance values) is given as roughly 80%. For the same compound, the “conjugated diene formation in the LDL solution” value with MPO [3] (20 µM, MPO/H2O2/nitrite, H2O2 300 µM) is “totally suppresses”. For the same compound, the “MPO/H2O2/nitrite-mediated LDL oxidation” value in the data set with MPO [3] (25 µM, H2O2 100 µM, NaNO2 100 µM, MPO 20 nM) is given as “completely suppressed”. Moreover, the “conjugated diene formation in the LDL solution” value in the data set on MPO [3] (100 µM, MPO/H2O2/nitrite, H2O2 300 µM) was “totally suppresses”. For the same compound, in the data set on SCD mice [4], the WBC counts entry is “more than half; also recorded: reduced by half”. For the same compound, the vessel wall thickness result in the data set on SCD mice [5] was “reduces vessel wall thickness”. Besides, the “O2•- production in PMA-stimulated HL-60 cells” value with NADPH oxidase (NOX) is reported as “neither KYC nor KYC disulfide have any significant effect; also recorded: Neither KYC nor KYC disulfide had any significant effect”. In addition, the “MPO/H2O2-mediated LDL oxidation” value with MPO [6] is “inhibited LDL oxidation; also recorded: did not increase LDL oxidation”. Further, in the data set with lung cancer mice, the “MPO activity in BALF” value is reported as “significantly decreased”, the “PMN number in BALF” value is on record as “did not reduce” and the “elastase activity in BALF” value is “significantly decreased”.
